According to ChEMBL document CHEMBL3044923, “Synthesis of 9-O-glycosyl-berberine derivatives and bioavailability evaluation” (Med Chem Res, 2012):

Assays:
Design in all cases: dose 100 mg/kg, route oral
Conditions in all cases: in vivo
Rattus norvegicus [1] = assay: Tmax in SPF Rattus norvegicus (rat) at 100 mg/kg, po; assay type: ADME, organism-based
Plasma = assay: Stability in SPF Rattus norvegicus (rat) plasma assessed as berberine formation at 100 mg/kg, po; assay type: ADME, organism-based
Rattus norvegicus [2] = assay: Cmax in SPF Rattus norvegicus (rat) at 100 mg/kg, po; assay type: ADME, organism-based
Rattus norvegicus [3] = assay: Half life in SPF Rattus norvegicus (rat) at 100 mg/kg, po; assay type: ADME, organism-based
Rattus norvegicus [4] = assay: AUC in SPF Rattus norvegicus (rat) at 100 mg/kg, po; assay type: ADME, organism-based, Plasma

| SMILES | Tmax (Rattus norvegicus [1]) | Stability (Plasma) | Cmax (Rattus norvegicus [2]) | t1/2 (Rattus norvegicus [3]) | AUC (Rattus norvegicus [4]) |
| --- | --- | --- | --- | --- | --- |
| COc1ccc2cc3[n+](cc2c1OC1OC[C@@H](O)[C@@H](O)[C@@H]1O)CCc1cc2c(cc1-3)OCO2 (stereo partly drawn) [9-O-ARABINOSYL-BERBERINE] | 3 h | Unstable | 48.7 ng/mL | 7.43 h | 205.146 µg·h/L |
| CCCCCCCCCCCCOc1c(OC)ccc2cc3[n+](cc12)CCc1cc2c(cc1-3)OCO2 [9-O-DODECYL-BERBERINE] | 3.5 h | Stable | 3.71 ng/mL | 7.86 h | 14.592 µg·h/L |
| COc1ccc2cc3[n+](cc2c1OC[C@H](O)[C@H](O)CO)CCc1cc2c(cc1-3)OCO2 [9-O-ERYTHROL-BERBERINE] | 3 h | Unstable | 37.5 ng/mL | 7.31 h | 180.316 µg·h/L |
| COc1ccc2cc3[n+](cc2c1OC1O[C@H](CO)[C@@H](O)[C@H](O)[C@H]1O)CCc1cc2c(cc1-3)OCO2 (stereo partly drawn) [9-O-GLUCOSYL-BERBERINE] | 3 h | Unstable | 63.4 ng/mL | 7.58 h | 268.94 µg·h/L |
| CCCCCCCCOc1c(OC)ccc2cc3[n+](cc12)CCc1cc2c(cc1-3)OCO2 [9-O-OCTYL-BERBERINE] | 3 h | – | 4.39 ng/mL | 7.85 h | 17.329 µg·h/L |
| COc1ccc2cc3[n+](cc2c1OC)CCc1cc2c(cc1-3)OCO2 [BERBERINE] | 2 h | – | 6.79 ng/mL | 7.88 h | 24.184 µg·h/L |
